Columns and labels:
[1] = system: Staphylococcal strains resistant to streptogramins; details: staphylococci resistant to synergistic mixtures of A and B compounds / to A compounds (Allignet et al., 1996); cited from earlier work
[2] = system: S. aureus recipient strain RN4220 harboring pIP1714; assay: Susceptibility of S. aureus RN4220 transformant harboring pIP1714 (vatC, vgbB); format: cell-based; details: RN4220 transformant harboring pIP1714, selected on 10 μg/ml pristinamycin IIA
Description: The strain BM10711 harbored several plasmids including pIP1714 (5 kb). This plasmid was isolated by electroporation in a S. aureus recipient strain, RN4220. The transformant, harboring pIP1714, was selected on BHIA containing 10 μg/ml pristinamycin IIA.
Susceptibility to antimicrobial agents was determined with a disk diffusion assay and commercially available disks (Diagnostic Pasteur). Additional disks prepared in our laboratory contained streptogramin A (20 μg) or streptogramin B (40 μg).
(§1) Minimal inhibitory concentrations (MICs) of antibiotics were determined by serial twofold dilutions of antibiotics in MHA (Ericson H. M. and S. C. Sherris, ActaPathol. Microbiol. Scand., 1971, Suppl. 217:Section B).

[3] = system: S. aureus recipient RN4220 transformants carrying recombinant plasmid pIP1717; assay: MICs by serial twofold dilutions in MHA, S. aureus RN4220 transformants carrying pIP1717 (vgaB); format: cell-based; details: S. aureus RN4220 transformants with pIP1717
Source text: First, the 2.4 kb HindIII-Haelll fragment of pIP1675, which contains only 10 nucleotide from vatB, was inserted into plasmid pOX300, and the recombinant plasmid, pIP1717 (FIG. 1B), was introduced by electroporation into the S. aureus recipient, RN4220 (Kreiswirth et al., 1983). Plasmid pOX300, also named pOX7, (Dyke and Curnock, 1989), is a hybrid of pUC18 and pEl94ts and replicates in E. coli where it confers resistance to ampicillin and to erythromycin, and in S. aureus where only resistance to erythromycin is expressed. The S. aureus transformants selected on 10 μg/ml erythromycin were resistant to streptogramin A and related compounds (PIIA MICs=8-16 μg/ml). Thus, the 2.4-kb HindIII-HaeIII insert of pIP1717 (FIG. 1B) probably carried a streptogramin A resistance gene and was sequenced. The nucleotide (nucleotide) sequence of this fragment was determined by the dideoxy method (Sanger et al., 1977) with the reagents and the procedure recommended by the suppliers of the T^7 sequencing kit (Pharmacia International). Arrows indicate the direction and extent of each dideoxy-sequencing reaction. (FIG. 1B).
as §1

Compound	MIC [1] [µg/mL]	resistance phenotype [2]	resistance phenotype [3]
CC1=C\[C@@H](O)CC(=O)Cc2nc(co2)C(=O)N2CCC=C2C(=O)O[C@H](C(C)C)[C@H](C)/C=C/C(=O)NC\C=C\1 [PIIA, pristinamycin IIA]	≥ 8	–	–
streptogramin A	–	conferred resistances	resistant
streptogramin B	–	conferred resistances	–

Source: patent publication US6570001B1, “Polynucleotides and their use for detecting resistance to streptogramin A or to streptogramin B and related compounds” (priority 1997, dated 2003)
